Experimental data as given in US11890288B2, “Sulfonamide or sulfinamide compound having effect of inducing BRD4 protein degradation and pharmaceutical use thereof” (MITSUBISHI TANABE PHARMA CORPORATION, priority 2020, dated 2024).

How the values were obtained:
Type in all cases: cell-based
[1] = system: human prostate cancer LNCaP cells; assay: Cytotoxic action on LNCaP cells (WST-8, 96 hr); details: 96 hr culture
Outline: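 IC50 values reflect 50% cell survival relative to untreated cells, interpolated linearly between the two concentrations that bracket it. Survival was read by WST-8 after 96 hr of compound treatment of cells grown in 10% FBS/RPMI1640 at 37° C.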

[2] = system: human chronic myeloid leukemia K562 cell; assay: Cytotoxic action on K562 cells (WST-8, 96 hr); details: K562, 96 hr
Procedure: (§1) The cytotoxic action of the compound of the present invention against human cancer cells was evaluated in vitro. In this experiment, (+)-JQ1 (Nature volume 468, pages 1067-1073 (23 Dec. 2010)) known to have an inhibitory activity on the binding of BRD4 protein and a ligand therefor was used as a positive control drug. Respective cells were suspended in 10% FBS/RPMI1640, seeded in a 96 well plate and cultured at 5% CO2, 37° C. overnight. A test compound dissolved in DMSO was diluted with 10% FBS/RPMI1640 and added and the cells were further cultured for 96 hr. After culturing, the viable cell number was measured using a cell number measurement WST-8 kit (Kishida Chemical Co., Ltd.). As a control, the measurement was performed under conditions free of the test compound. The cytotoxic activity of the compound of the present invention against human prostate cancer LNCaP cells is shown in IC50 value in Table 1. The IC50 value is a concentration of the compound showing 50% cell survival rate when the cell survival rate thereof under compound untreated condition is 100%. It was calculated from the straight line connecting the cell survival rate at two points enclosing the 50% cell survival rate and the compound concentration. […]

[3] = system: human multiple myeloma MM.1S cell; assay: Cytotoxic action on MM.1S cells (WST-8, 96 hr); details: MM1.S
Procedure: as §1

[4] = system: human Burkitt lymphoma Raji cell; assay: Cytotoxic action on Raji cells (WST-8, 96 hr)
Procedure: as §1

[5] = system: human AR-V7 positive castration-resistant prostate cancer 22Rv1 cell; assay: Cytotoxic action on 22Rv1 cells (WST-8, 96 hr); details: 22Rv1, 96 hr
Procedure: as §1

[6] = system: human bladder cancer 5637 cell; assay: Cytotoxic action on 5637 cells (WST-8, 96 hr); details: 5637, 96 hr
Procedure: as §1

[7] = system: human uterine sarcoma MES-SA cell; assay: Cytotoxic action on MES-SA cells (WST-8, 96 hr)
Procedure: as §1

[8] = system: human EGFRT790M mutation-positive non-small cell lung cancer NCI-H1975 cell; assay: Cytotoxic action on NCI-H1975 cells (WST-8, 96 hr); details: NCI-H1975, 96 hr
Procedure: as §1

[9] = system: human pancreatic cancer BxPC-3 cell; assay: Cytotoxic action on BxPC-3 cells (WST-8, 96 hr); details: BxPC-3, 96 hr
Procedure: as §1

BRD4 protein = BRD4 protein (Homo sapiens (Human), UniProt O60885); assay: BRD4 protein degradation inducing action in LNCaP cells (immunofluorescence, 6 hr); details: anti-BRD4 fluorescence intensity
Outline: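 LNCaP cells in 10% FBS/RPMI1640 exposed to compound for 6 hr, fixed, permeabilized and immunostained for BRD4 with Alexa Fluor 546 secondary; fluorescence (ex 560, em 572 nm) read by imaging. DC50 = concentration giving 50% of untreated signal, interpolated linearly between the two bracketing points.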

[10] = system: Human breast cancer MDA-MB-436 cells; assay: Cytotoxic action on MDA-MB-436 cells (WST-8, 96 hr); details: Homo sapiens
Procedure: The cytotoxic action of the compound of the present invention against cancer cells that acquired resistance to conventional BRD4 protein degradation inducing agents was evaluated in vitro. In this experiment, ARV-771 (Proc Natl Acad Sci USA. volume 113, pages 7124-7129 (28 Jun. 2016)) and MZ1 (ACS Chem Biol. Volume 10, pages 1770-1777 (21 Aug. 2015)), in which a ligand for VHL and BRD4 protein inhibitor are linked, were used as a conventional BRD4 protein degradation inducing agent serving as a comparison control. Human breast cancer MDA-MB-436 cells and MDA-MB-436 cells that acquired resistance to conventional BRD4 protein degradation inducing agents (MDA-MB-436 w/o2 cells) were suspended in 10% FBS/RPMI1640, seeded in a 96 well plate and cultured at 5% CO2, 37° C. overnight. A test compound dissolved in DMSO was diluted with 10% FBS/RPMI1640 and added and the cells were further cultured for 96 hr. After culturing, the viable cell number was measured using a cell number measurement WST-8 kit (Kishida Chemical Co., Ltd.). As a control, the measurement was performed under conditions free of the test compound. The cytotoxic activity of the compound of the present invention against each cell is shown in IC50 value in Table 4. The IC50 value is a concentration of the compound showing 50% cell survival rate when the cell survival rate thereof under compound untreated condition is 100%. It was calculated from the straight line connecting the cell survival rate at two points enclosing the 50% cell survival rate and the compound concentration. In addition, the tolerance (fold) was calculated by dividing the IC50 value in MDA-MB-436 w/o2 cells by the IC50 value in MDA-MB-436 cells.

## COC(=O)C[C@@H]1N=C(c2ccc(-c3ccc(C(=O)NCc4ccc(S(=O)(=O)Nc5ccc(C)c6c(C#N)c[nH]c56)cc4)cc3)cc2)c2c(sc(C)c2C)-n2c(C)nnc21 [Example 1, methyl [(6S)-4-{4′-[({4-[(3-cyano-4-methyl-1H-indol-7-yl)sulfamoyl]phenyl}methyl)carbamoyl][1,1′-biphenyl]-4-yl}-2,3,9-trimethyl-6H-thieno[3,2-f][1,2,4]triazolo[4,3-a][1,4]diazepin-6-yl]acetate]
[1]
  IC50: 0.14 nM
[2]
  IC50: 1.7 nM
[3]
  IC50: 0.026 nM
[4]
  IC50: 5.3 nM
[5]
  IC50: 0.71 nM
[6]
  IC50: 1.9 nM
[7]
  IC50: 1.8 nM
[8]
  IC50: 3.6 nM
[9]
  IC50: 3.3 nM
BRD4 protein
  DC50: 0.15 nM
[10]
  IC50: 0.39 nM
